# ChEMBL document CHEMBL4507258 (2021)
# Assays:
# [1] = target: MAP kinase-activated protein kinase 2 (Homo sapiens) (UniProt P49137); conditions: Compound concentration 1000.0 nM
# [2] = target: Ribosomal protein S6 kinase alpha-5 (Homo sapiens) (UniProt O75582); conditions: Compound concentration 1000.0 nM
# [3] = target: Phosphatidylinositol 4,5-bisphosphate 3-kinase catalytic subunit alpha isoform (Homo sapiens) (UniProt P42336); conditions: Compound concentration 1000.0 nM
# [4] = target: Mitogen-activated protein kinase kinase kinase 6 (Homo sapiens) (UniProt O95382); conditions: Compound concentration 1000.0 nM
# [5] = target: Serine/threonine-protein kinase mTOR (Homo sapiens) (UniProt P42345); conditions: Compound concentration 1000.0 nM
# [6] = target: Serine/threonine-protein kinase BRSK1 (Homo sapiens) (UniProt Q8TDC3); conditions: Compound concentration 1000.0 nM
# [7] = target: Cyclin-dependent kinase 8 (Homo sapiens) (UniProt P49336); conditions: Compound concentration 1000.0 nM
# [8] = target: Phosphatidylinositol 3-kinase C2 domain-containing subunit gamma (Homo sapiens) (UniProt O75747); conditions: Compound concentration 1000.0 nM
# [9] = tested on: Tyrosine-protein kinase ABL1 (Homo sapiens), P00519 [Q252H]; conditions: Compound concentration 1000.0 nM
# [10] = target: Mitogen-activated protein kinase 13 (Homo sapiens) (UniProt O15264); conditions: Compound concentration 1000.0 nM
# [11] = target: BMP-2-inducible protein kinase (Homo sapiens) (UniProt Q9NSY1); conditions: Compound concentration 1000.0 nM
# [12] = target: Serine/threonine-protein kinase MARK1 (Homo sapiens) (UniProt Q9P0L2); conditions: Compound concentration 1000.0 nM
# [13] = target: Ephrin type-A receptor 4 (Homo sapiens) (UniProt P54764); conditions: Compound concentration 1000.0 nM
# [14] = target: Sodium-dependent serotonin transporter (Homo sapiens) (UniProt P31645); conditions: Compound concentration 10.0 uM
# [15] = target: Ribosomal protein S6 kinase alpha-3 (Homo sapiens) (UniProt P51812); conditions: Compound concentration 1000.0 nM
# [16] = tested on: Tyrosine-protein kinase ABL1 (Homo sapiens), P00519 [T315I]; conditions: Compound concentration 1000.0 nM
# [17] = target: Cyclin-dependent kinase-like 3 (Homo sapiens) (UniProt Q8IVW4); conditions: Compound concentration 1000.0 nM
# [18] = target: Atypical kinase COQ8B, mitochondrial (Homo sapiens) (UniProt Q96D53); conditions: Compound concentration 1000.0 nM
# [19] = target: 1-phosphatidylinositol 3-phosphate 5-kinase (Homo sapiens) (UniProt Q9Y2I7); conditions: Compound concentration 1000.0 nM
# [20] = target: Interleukin-1 receptor-associated kinase 4 (Homo sapiens) (UniProt Q9NWZ3); conditions: Compound concentration 1000.0 nM
# [21] = target: Delta-type opioid receptor (Homo sapiens) (UniProt P41143); conditions: Compound concentration 10.0 uM
# [22] = tested on: Receptor-type tyrosine-protein kinase FLT3 (Homo sapiens), P36888 [UNDEFINED MUTATION]; conditions: Compound concentration 1000.0 nM
# [23] = target: Proto-oncogene tyrosine-protein kinase receptor Ret (Homo sapiens) (UniProt P07949); conditions: Compound concentration 1000.0 nM
# [24] = target: Alpha-2C adrenergic receptor (Homo sapiens, UniProt P18825); experiment: GPCRScan assay: inhibition of Alpha2C; parameters: radioligand conc. used [nm] 0.5 – 1.0, parental cells stable MDCK
# [25] = target: D(3) dopamine receptor (Homo sapiens) (UniProt P35462); conditions: Compound concentration 10.0 uM
# [26] = target: Serine/threonine-protein kinase ULK3 (Homo sapiens) (UniProt Q6PHR2); conditions: Compound concentration 1000.0 nM
# [27] = tested on: Leucine-rich repeat serine/threonine-protein kinase 2 (Homo sapiens), Q5S007 [G2019S]; conditions: Compound concentration 1000.0 nM
# [28] = target: STE20/SPS1-related proline-alanine-rich protein kinase (Homo sapiens) (UniProt Q9UEW8); conditions: Compound concentration 1000.0 nM
# Mu-type opioid receptor [29] = target: T1, Mu-type opioid receptor (Homo sapiens, UniProt P35372); conditions: Compound concentration 10.0 uM
# [30] = target: Serine/threonine-protein kinase 36 (Homo sapiens) (UniProt Q9NRP7); conditions: Compound concentration 1000.0 nM
# [31] = target: Mitogen-activated protein kinase 10 (Homo sapiens) (UniProt P53779); conditions: Compound concentration 1000.0 nM
# [32] = target: Leukocyte tyrosine kinase receptor (Homo sapiens) (UniProt P29376); conditions: Compound concentration 1000.0 nM
# [33] = target: Membrane-associated tyrosine- and threonine-specific cdc2-inhibitory kinase (Homo sapiens) (UniProt Q99640); conditions: Compound concentration 1000.0 nM
# [34] = target: Phosphatidylinositol 4-phosphate 5-kinase type-1 alpha (Homo sapiens) (UniProt Q99755); conditions: Compound concentration 1000.0 nM
# [35] = tested on: Receptor-type tyrosine-protein kinase FLT3 (Homo sapiens), P36888 [R834Q]; conditions: Compound concentration 1000.0 nM
# [36] = target: Muscarinic acetylcholine receptor M3 (Homo sapiens) (UniProt P20309); experiment: Muscarinic M3 receptors (h) CEREP ligand profiling; conditions: Compound concentration 10.0 uM
# [37] = target: Neuromedin-K receptor (Homo sapiens) (UniProt P29371); experiment: NK3 tachykinin receptor (h) CEREP ligand profiling; conditions: Compound concentration 10.0 uM
# [38] = target: Translocator protein (Rattus norvegicus) (UniProt P16257); experiment: Benzodiazepine (peripheral) CEREP ligand profiling; conditions: Compound concentration 10.0 uM
# [39] = target: Beta-1 adrenergic receptor (Homo sapiens) (UniProt P08588); conditions: Compound concentration 10.0 uM
# [40] = target: Voltage-gated L-type calcium channel (verapamil site) (Homo sapiens, UniProt O60840+Q01668+Q13698+Q13936); experiment: Ca2+ channel (L, verapamil site) CEREP ligand profiling; assay type: protein assay; conditions: compound concentration 10 uM
# Mu-type opioid receptor [41] = target: T1, Mu-type opioid receptor; experiment: mu-Opioid receptor (h) CEREP ligand profiling; conditions: Compound concentration 10.0 uM
# [42] = target: Sodium-dependent noradrenaline transporter (Homo sapiens) (UniProt P23975); experiment: Norepinephrine uptake CEREP ligand profiling; conditions: Compound concentration 10.0 uM
# [43] = target: 5-hydroxytryptamine receptor 7 (Homo sapiens) (UniProt P34969); conditions: Compound concentration 10.0 uM
# [44] = target: 5-hydroxytryptamine receptor 6 (Homo sapiens) (UniProt P50406); experiment: 5-Hydroxytryptamine6 (h) CEREP ligand profiling; conditions: Compound concentration 10.0 uM
# [45] = target: Vasopressin V2 receptor (Homo sapiens) (UniProt P30518); experiment: Vasopresine V2 receptor CEREP ligand profiling; conditions: Compound concentration 10.0 uM
# T1 sequence (P35372 whole entry): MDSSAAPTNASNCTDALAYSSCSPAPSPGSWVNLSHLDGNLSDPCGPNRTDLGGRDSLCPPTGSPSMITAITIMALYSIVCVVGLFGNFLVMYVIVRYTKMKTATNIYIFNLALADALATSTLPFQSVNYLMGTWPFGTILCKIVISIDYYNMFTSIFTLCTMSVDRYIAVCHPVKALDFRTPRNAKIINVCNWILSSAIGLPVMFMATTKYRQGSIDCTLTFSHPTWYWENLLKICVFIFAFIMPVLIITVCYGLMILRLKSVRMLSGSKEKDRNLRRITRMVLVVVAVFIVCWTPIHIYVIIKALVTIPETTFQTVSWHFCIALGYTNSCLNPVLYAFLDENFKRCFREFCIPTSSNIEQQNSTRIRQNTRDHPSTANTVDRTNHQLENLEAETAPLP
# Chain of Phosphatidylinositol 3-kinase C2 domain-containing subunit gamma (Homo sapiens) (O75747 whole entry, the tested form may be a part): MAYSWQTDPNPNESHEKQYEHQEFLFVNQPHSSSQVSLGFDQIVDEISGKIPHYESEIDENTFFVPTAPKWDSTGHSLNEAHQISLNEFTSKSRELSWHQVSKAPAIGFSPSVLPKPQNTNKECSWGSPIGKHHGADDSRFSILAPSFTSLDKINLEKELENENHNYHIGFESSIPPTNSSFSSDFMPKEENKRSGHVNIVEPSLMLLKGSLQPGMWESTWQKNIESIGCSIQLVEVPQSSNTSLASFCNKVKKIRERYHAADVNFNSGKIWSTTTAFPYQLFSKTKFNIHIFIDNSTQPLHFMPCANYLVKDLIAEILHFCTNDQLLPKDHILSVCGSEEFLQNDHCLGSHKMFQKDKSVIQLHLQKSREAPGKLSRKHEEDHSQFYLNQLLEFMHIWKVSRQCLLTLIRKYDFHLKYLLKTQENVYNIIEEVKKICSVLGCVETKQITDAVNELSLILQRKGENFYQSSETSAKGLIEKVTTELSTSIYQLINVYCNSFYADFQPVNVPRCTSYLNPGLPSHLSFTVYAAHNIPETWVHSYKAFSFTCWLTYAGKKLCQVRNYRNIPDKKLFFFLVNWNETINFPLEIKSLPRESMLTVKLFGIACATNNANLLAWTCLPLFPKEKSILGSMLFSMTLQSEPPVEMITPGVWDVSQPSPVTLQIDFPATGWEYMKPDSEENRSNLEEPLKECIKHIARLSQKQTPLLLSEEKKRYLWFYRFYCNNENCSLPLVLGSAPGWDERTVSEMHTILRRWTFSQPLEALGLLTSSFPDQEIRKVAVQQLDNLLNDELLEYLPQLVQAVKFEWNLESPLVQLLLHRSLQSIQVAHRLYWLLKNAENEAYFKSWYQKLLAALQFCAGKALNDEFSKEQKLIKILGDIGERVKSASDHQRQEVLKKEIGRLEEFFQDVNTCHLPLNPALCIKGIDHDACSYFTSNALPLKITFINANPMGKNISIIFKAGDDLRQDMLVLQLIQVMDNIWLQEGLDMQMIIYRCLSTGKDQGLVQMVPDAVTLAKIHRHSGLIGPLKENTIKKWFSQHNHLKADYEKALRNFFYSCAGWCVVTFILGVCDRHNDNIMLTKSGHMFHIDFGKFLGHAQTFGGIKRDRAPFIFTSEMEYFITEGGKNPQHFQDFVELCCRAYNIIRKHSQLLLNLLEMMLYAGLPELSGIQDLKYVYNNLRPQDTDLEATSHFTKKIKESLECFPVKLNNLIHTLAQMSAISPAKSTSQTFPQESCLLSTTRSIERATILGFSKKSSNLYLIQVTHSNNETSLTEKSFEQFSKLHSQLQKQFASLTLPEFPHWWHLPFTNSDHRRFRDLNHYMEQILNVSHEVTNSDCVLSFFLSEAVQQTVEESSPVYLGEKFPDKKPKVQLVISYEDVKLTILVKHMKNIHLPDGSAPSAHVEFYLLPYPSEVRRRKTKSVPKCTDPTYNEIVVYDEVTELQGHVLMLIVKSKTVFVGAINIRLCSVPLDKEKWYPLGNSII
# Chain of Cyclin-dependent kinase-like 3 (Homo sapiens) (Q8IVW4 whole entry, looked up): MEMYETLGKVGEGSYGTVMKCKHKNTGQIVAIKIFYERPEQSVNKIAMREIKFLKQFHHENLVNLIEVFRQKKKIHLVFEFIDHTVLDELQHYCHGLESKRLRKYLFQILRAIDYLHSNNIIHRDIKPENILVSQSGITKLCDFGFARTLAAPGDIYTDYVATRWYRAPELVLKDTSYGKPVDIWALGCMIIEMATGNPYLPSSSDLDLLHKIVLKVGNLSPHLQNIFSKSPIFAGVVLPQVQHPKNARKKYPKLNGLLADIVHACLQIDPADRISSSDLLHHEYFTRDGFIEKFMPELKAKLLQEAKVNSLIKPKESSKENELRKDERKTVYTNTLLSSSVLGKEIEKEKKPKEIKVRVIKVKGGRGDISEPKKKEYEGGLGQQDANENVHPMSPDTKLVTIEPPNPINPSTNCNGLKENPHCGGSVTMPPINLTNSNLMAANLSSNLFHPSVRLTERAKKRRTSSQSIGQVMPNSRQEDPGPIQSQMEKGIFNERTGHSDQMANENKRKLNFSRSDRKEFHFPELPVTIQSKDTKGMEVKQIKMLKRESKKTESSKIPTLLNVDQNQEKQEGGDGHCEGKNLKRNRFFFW
# Chain of Cyclin-dependent kinase 8 (Homo sapiens) (P49336 whole entry, the tested form may be a part): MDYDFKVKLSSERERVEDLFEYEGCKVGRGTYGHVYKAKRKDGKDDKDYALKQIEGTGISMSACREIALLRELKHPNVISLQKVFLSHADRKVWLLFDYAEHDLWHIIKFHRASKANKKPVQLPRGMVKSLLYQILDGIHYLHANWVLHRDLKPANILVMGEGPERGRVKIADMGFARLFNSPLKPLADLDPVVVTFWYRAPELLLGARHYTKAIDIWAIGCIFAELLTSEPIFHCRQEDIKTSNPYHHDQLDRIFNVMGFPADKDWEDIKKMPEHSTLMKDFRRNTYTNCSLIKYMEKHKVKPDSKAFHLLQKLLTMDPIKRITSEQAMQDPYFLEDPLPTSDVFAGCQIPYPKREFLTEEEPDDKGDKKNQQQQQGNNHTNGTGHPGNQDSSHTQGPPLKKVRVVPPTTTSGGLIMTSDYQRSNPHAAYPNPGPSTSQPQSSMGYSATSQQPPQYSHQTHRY
# Chain of Ribosomal protein S6 kinase alpha-5 (Homo sapiens) (O75582 whole entry, looked up, canonical isoform): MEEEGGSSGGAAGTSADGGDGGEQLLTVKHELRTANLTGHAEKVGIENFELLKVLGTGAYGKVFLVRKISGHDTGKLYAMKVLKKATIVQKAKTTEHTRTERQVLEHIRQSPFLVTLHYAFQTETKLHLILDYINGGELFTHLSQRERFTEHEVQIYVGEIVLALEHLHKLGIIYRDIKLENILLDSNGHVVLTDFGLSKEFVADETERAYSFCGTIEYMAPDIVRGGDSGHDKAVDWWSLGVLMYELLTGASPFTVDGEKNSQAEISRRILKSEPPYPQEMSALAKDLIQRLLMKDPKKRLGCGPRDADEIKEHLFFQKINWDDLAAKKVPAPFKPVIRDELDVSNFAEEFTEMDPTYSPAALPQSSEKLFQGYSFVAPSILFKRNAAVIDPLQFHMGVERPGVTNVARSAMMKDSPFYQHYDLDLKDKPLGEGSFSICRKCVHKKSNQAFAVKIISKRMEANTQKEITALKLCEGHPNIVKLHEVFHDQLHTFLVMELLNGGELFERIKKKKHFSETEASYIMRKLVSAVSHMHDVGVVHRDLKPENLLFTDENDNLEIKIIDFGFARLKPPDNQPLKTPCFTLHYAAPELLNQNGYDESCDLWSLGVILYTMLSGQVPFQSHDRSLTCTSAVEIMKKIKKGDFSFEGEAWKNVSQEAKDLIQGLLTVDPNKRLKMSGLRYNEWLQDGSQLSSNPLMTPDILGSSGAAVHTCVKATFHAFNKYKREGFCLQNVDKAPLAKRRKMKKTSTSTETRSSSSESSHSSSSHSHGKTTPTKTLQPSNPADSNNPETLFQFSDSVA
# Chain of Serine/threonine-protein kinase BRSK1 (Homo sapiens) (Q8TDC3 whole entry): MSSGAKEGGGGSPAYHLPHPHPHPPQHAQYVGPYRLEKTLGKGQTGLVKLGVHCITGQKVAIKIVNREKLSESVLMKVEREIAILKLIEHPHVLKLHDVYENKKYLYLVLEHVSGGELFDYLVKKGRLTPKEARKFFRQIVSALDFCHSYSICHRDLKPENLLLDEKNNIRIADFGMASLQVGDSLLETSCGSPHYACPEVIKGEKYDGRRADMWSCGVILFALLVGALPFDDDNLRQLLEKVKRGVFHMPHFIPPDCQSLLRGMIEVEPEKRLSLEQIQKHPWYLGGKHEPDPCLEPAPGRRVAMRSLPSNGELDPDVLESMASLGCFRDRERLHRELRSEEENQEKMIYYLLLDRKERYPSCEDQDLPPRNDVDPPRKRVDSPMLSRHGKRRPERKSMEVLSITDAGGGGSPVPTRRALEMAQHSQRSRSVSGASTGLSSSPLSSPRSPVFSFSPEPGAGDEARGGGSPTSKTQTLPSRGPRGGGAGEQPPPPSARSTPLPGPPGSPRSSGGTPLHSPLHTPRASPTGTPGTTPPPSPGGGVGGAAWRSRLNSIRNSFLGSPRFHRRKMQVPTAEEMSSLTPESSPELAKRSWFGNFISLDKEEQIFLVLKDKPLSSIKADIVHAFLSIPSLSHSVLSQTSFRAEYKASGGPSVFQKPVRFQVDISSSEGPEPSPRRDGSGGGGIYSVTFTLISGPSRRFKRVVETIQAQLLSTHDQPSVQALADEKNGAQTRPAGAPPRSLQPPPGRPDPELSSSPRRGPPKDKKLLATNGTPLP
# Chain of Mitogen-activated protein kinase 13 (Homo sapiens) (O15264 whole entry): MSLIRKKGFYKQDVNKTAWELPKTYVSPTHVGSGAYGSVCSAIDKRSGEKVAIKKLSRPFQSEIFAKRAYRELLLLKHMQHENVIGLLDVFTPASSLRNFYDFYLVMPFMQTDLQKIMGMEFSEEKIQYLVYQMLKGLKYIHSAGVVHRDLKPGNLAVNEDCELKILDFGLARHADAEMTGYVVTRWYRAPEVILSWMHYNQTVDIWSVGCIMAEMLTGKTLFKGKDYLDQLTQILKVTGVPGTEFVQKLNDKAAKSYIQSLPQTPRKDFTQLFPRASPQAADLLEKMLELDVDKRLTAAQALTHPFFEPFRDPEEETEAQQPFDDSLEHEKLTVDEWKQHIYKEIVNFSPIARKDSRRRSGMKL
smiles,measurement,setting,value
CCCCN(CCCC)C(=O)CN1C[C@@H](c2cc(OC)c3c(c2)OCO3)[C@H](C(=O)O)[C@H]1CC(C)(C)CCC [A-545],residual activity,[1],84.2%
same,residual activity,[2],74.4%
same,residual activity,[3],95.9%
same,residual activity,[4],100%
same,residual activity,[5],100%
same,residual activity,[6],88.9%
same,residual activity,[7],78%
same,residual activity,[8],80.3%
same,residual activity,[9],94.6%
same,residual activity,[10],100%
same,residual activity,[11],100%
same,residual activity,[12],88.7%
same,residual activity,[13],95.7%
same,inhibition,[14],-7.99%
same,residual activity,[15],99.2%
same,residual activity,[16],100%
same,residual activity,[17],83.6%
same,residual activity,[18],80.2%
same,residual activity,[19],81.4%
same,residual activity,[20],94.5%
same,inhibition,[21],41.1%
same,residual activity,[22],97.4%
same,residual activity,[23],86.1%
same,Ki,[24],5.77 µM
same,inhibition,[25],16.6%
same,residual activity,[26],90.7%
same,residual activity,[27],100%
same,residual activity,[28],100%
same,inhibition,Mu-type opioid receptor [29],58.5%
same,residual activity,[30],75%
same,residual activity,[31],100%
same,residual activity,[32],94.1%
same,residual activity,[33],100%
same,residual activity,[34],100%
same,residual activity,[35],80.6%
CCCCN(CCCC)C(=O)CN1C[C@H](c2cc(OC)c3c(c2)OCO3)[C@@H](C(=O)O)[C@@H]1CC(C)(C)CCC [ABT-546],residual activity,[1],100%
same,residual activity,[2],100%
same,residual activity,[3],89.7%
same,residual activity,[4],81.7%
same,residual activity,[5],100%
same,residual activity,[6],100%
same,inhibition,[36],< 10%
same,inhibition,[37],< 10%
same,residual activity,[7],100%
same,residual activity,[8],100%
same,residual activity,[9],97.7%
same,residual activity,[10],100%
same,residual activity,[11],100%
same,residual activity,[12],96.5%
same,inhibition,[38],< 10%
same,residual activity,[13],100%
same,inhibition,[14],15.3%
same,residual activity,[15],100%
same,inhibition,[39],-6.6%
same,residual activity,[16],100%
same,residual activity,[17],100%
same,residual activity,[18],0%
same,residual activity,[19],100%
same,inhibition at 10 µM,[40],29% (not active)
same,residual activity,[20],67.5%
same,inhibition,[21],25.6%
same,residual activity,[22],46.4%
same,residual activity,[23],100%
same,inhibition,[25],17.3%
same,residual activity,[26],86.7%
same,inhibition,Mu-type opioid receptor [41],17%
same,inhibition,[42],< 10%
same,residual activity,[27],100%
same,residual activity,[28],100%
same,inhibition,[43],-2.24%
same,inhibition,[44],< 10%
same,inhibition,Mu-type opioid receptor [29],14.2%
same,inhibition,[45],< 10%
same,residual activity,[30],100%
same,residual activity,[31],91.1%
same,residual activity,[32],100%
same,residual activity,[33],100%
same,residual activity,[34],100%
same,residual activity,[35],64.2%
